Test system: mEpiSCs
Test: mEpiSC conversion culture in first conversion media with Smad inhibitor
Format: cell-based, mouse
Conditions: 1 μM on Day 0, 3 μM from Days 1-3; observed Conversion Day 1
Procedure: Under the conditions tested, the conversion bias toward floating iBCs was less efficient; therefore, more cells were required than for the 3D hemispheres (discussed in example above) in order to observe or harvest iBCs. It is contemplated that optimization of timing and Smad inhibition may vary depending on the cell type used. […] Two phases of media were prepared and cells were fed from days 0-3 (“first conversion media”) and then days 4-7 (“second conversion media”), respectively.
At Conversion Day 0, approximately 14 hours after preparation of mEpiSCs for conversion, cells were observed as evenly dispersed, mostly single cells. The first conversion media was prepared using CTSFES media with Pen/Strep and 2-Mercaptoethanol described above as the base media and supplemented with BMP4 (10 ng/mL), SB431542 (1 μM on Day 0, 3 μM from Days 1-3), and AA (64 μg/mL). On Conversion Day 1, cells were observed growing with some cells remaining colony-like while others began to flatten at the edges. (FIG. 4). […] At approximately the same time each day, media was replaced and cells were incubated overnight at 37° C.

## NC(=O)c1ccc(-c2nc(-c3ccc4c(c3)OCO4)c(-c3ccccn3)[nH]2)cc1 [SB431542]
  toxicity to starting mEpiSCs: toxicity was also believed to be killing some cells
